Values joined by “and” are separate entries in the source; they are usually repeats but may differ in a detail not shown here. Equal entries are not always repeated. Toxic doses and inconclusive results are not listed. Cut-off read from the data, not from the text of the source: active = T/C of 150% or more; inactive = T/C below 125%.
Tested on: L1210 leukemia ip in BDF1 mice, survival T/C
Assay: NCI In Vivo Anticancer Drug Screen. Data for tumor model L1210 Leukemia (intraperitoneal) in B6D2F1 (BDF1) mice
Conditions: endpoint: mean survival time, higher = longer survival
Summary of the method: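 Transplantable tumor model; survival measured in treated vs vehicle control mice. Value = treated/control.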

[1] = dose: 100.0 mg/kg/injection, schedule: Q01DX009 (ip), vehicle: Klucel (hydroxypropylcellulose) (HPC)
[2] = dose: 100.0 mg/kg/injection, schedule: Q01DX009 (ip), vehicle: saline with Tween-80
[3] = dose: 100.0 mg/kg/injection, schedule: Q04DX002 (ip), vehicle: Klucel (hydroxypropylcellulose) (HPC)
[4] = dose: 100.0 mg/kg/injection, schedule: Q04DX003 (ip), vehicle: saline with Tween-80
[5] = dose: 200.0 mg/kg/injection, schedule: Q01DX009 (ip), vehicle: Klucel (hydroxypropylcellulose) (HPC)
[6] = dose: 200.0 mg/kg/injection, schedule: Q01DX009 (ip), vehicle: saline with Tween-80
[7] = dose: 200.0 mg/kg/injection, schedule: Q04DX002 (ip), vehicle: Klucel (hydroxypropylcellulose) (HPC)
[8] = dose: 200.0 mg/kg/injection, schedule: Q04DX003 (ip), vehicle: saline with Tween-80
[9] = dose: 400.0 mg/kg/injection, schedule: Q01DX009 (ip), vehicle: Klucel (hydroxypropylcellulose) (HPC)
[10] = dose: 400.0 mg/kg/injection, schedule: Q01DX009 (ip), vehicle: saline with Tween-80
[11] = dose: 400.0 mg/kg/injection, schedule: Q04DX002 (ip), vehicle: Klucel (hydroxypropylcellulose) (HPC)
[12] = dose: 400.0 mg/kg/injection, schedule: Q04DX003 (ip), vehicle: saline with Tween-80
[13] = dose: 100.0 mg/kg/injection, schedule: Q01DX001 (ip), vehicle: saline with Tween-80
[14] = dose: 100.0 mg/kg/injection, schedule: Q04DX002 (ip), vehicle: saline with Tween-80
[15] = dose: 200.0 mg/kg/injection, schedule: Q01DX001 (ip), vehicle: saline with Tween-80
[16] = dose: 200.0 mg/kg/injection, schedule: Q04DX002 (ip), vehicle: saline with Tween-80
[17] = dose: 400.0 mg/kg/injection, schedule: Q04DX002 (ip), vehicle: saline with Tween-80
[18] = dose: 100.0 mg/kg/injection, schedule: Q04DX003 (ip), vehicle: saline
[19] = dose: 200.0 mg/kg/injection, schedule: Q04DX003 (ip), vehicle: saline
[20] = dose: 400.0 mg/kg/injection, schedule: Q04DX003 (ip), vehicle: saline
[21] = dose: 50.0 mg/kg/injection, schedule: Q01DX009 (ip), vehicle: saline with Tween-80
[22] = dose: 200.0 mg/kg/injection, schedule: Q01DX009 (ip), vehicle: saline

Measured: T/C

O=C(Nc1ccc([N+](=O)[O-])cc1)Nc1ccc([N+](=O)[O-])cc1
inactive: [1] 93 % of control | dose: 100.0 mg/kg/injection, schedule: Q01DX009 (ip), vehicle: saline sonified 109 % of control | [2] 109 % of control | [3] 101 % of control | dose: 100.0 mg/kg/injection, schedule: Q04DX003 (ip), vehicle: Klucel (hydroxypropylcellulose) (HPC) 104 % of control | dose: 100.0 mg/kg/injection, schedule: Q04DX003 (ip), vehicle: saline sonified 96 % of control | [4] 100 % of control | [5] 94 % of control | dose: 200.0 mg/kg/injection, schedule: Q01DX009 (ip), vehicle: saline sonified 110 % of control | [6] 90 % of control | [7] 90 % of control | dose: 200.0 mg/kg/injection, schedule: Q04DX003 (ip), vehicle: Klucel (hydroxypropylcellulose) (HPC) 104 % of control | dose: 200.0 mg/kg/injection, schedule: Q04DX003 (ip), vehicle: saline sonified 91 % of control | [8] 102 % of control | [9] 88 % of control | dose: 400.0 mg/kg/injection, schedule: Q01DX009 (ip), vehicle: saline sonified 98 % of control | [10] 86 % of control | [11] 97 % of control | dose: 400.0 mg/kg/injection, schedule: Q04DX003 (ip), vehicle: Klucel (hydroxypropylcellulose) (HPC) 98 % of control | dose: 400.0 mg/kg/injection, schedule: Q04DX003 (ip), vehicle: saline sonified 93 % of control | [12] 97 % of control

CC(C)CCOC(=O)c1ccccc1OC(=O)Nc1ccc(Cl)cc1[N+](=O)[O-]
inactive: [13] 102 % of control | [2] 99 % of control and 89 % of control | [14] 94 % of control and 103 % of control | [4] 91 % of control | [15] 90 % of control | [6] 86 % of control and 89 % of control | [16] 97 % of control and 88 % of control | [8] 91 % of control | dose: 400.0 mg/kg/injection, schedule: Q01DX001 (ip), vehicle: saline with Tween-80 88 % of control | [10] 89 % of control | [17] 100 % of control and 104 % of control | [12] 99 % of control

CCN(CC)CC(=O)NCC(CCN1CCOCC1)c1cccc2ccccc12 (stereo not drawn)
inactive: [18] 96 % of control | [19] 100 % of control | [20] 93 % of control

COC(=O)c1ccccn1
inactive: [14] 100 % of control | [16] 107 % of control

O=C(/C=C/c1ccccc1)c1ccccc1O
inactive: [2] 89 % of control | [4] 100 % of control | [6] 86 % of control | [8] 98 % of control | [10] 94 % of control | [12] 98 % of control

CCCCN(CCCC)C(=O)c1[nH]cnc1/N=N\N(C)C
inactive: [21] 117 % of control | [13] 106 % of control | [2] 108 % of control | [15] 118 % of control

CC(C)CCCC(C)C1CCC2C3CCC4CN(N=O)CCC4C3CCC12C (stereo not drawn)
inactive: dose: 100.0 mg/kg/injection, schedule: Q01DX001 (sc), vehicle: steriod suspending solution 102 % of control | dose: 177.6 mg/kg/injection, schedule: Q01DX001 (sc), vehicle: steriod suspending solution 95 % of control | dose: 200.0 mg/kg/injection, schedule: Q01DX001 (sc), vehicle: steriod suspending solution 102 % of control | dose: 266.8 mg/kg/injection, schedule: Q01DX001 (sc), vehicle: steriod suspending solution 98 % of control | dose: 600.0 mg/kg/injection, schedule: Q01DX001 (sc), vehicle: steriod suspending solution 98 % of control

CCOC(=O)CCCCCC(C(=O)OCC)c1nc2ccccc2[nH]c1=O (stereo not drawn)
inactive: [3] 99 % of control | [7] 101 % of control | [11] 86 % of control

COc1cc(C=O)ccc1OC(=O)Nc1cc(C)ccc1C
inactive: dose: 25.0 mg/kg/injection, schedule: Q01DX009 (ip), vehicle: saline with Tween-80 100 % of control and 91 % of control | dose: 50.0 mg/kg/injection, schedule: Q01DX001 (ip), vehicle: saline with Tween-80 96 % of control | [21] 97 % of control and 101 % of control | [13] 97 % of control | [14] 91 % of control and 92 % of control | [15] 94 % of control and 92 % of control | [16] 94 % of control and 106 % of control | [17] 94 % of control and 92 % of control

NC(=O)c1cn[nH]c1N1CC[N+](CCCl)=N1
inactive: dose: 50.0 mg/kg/injection, schedule: Q01DX009 (ip), vehicle: saline 93 % of control | dose: 100.0 mg/kg/injection, schedule: Q01DX009 (ip), vehicle: saline 103 % of control | [18] 103 % of control | [22] 108 % of control | [19] 97 % of control

O=C(Nc1ccccc1C(=O)N/N=C/c1cccc(O)c1)c1ccccc1
inactive: [1] 103 % of control | [5] 89 % of control | [9] 97 % of control

NC(=O)CC(N)C(=O)O (stereo not drawn)
inactive: dose: 100.0 mg/kg/injection, schedule: Q01DX001 (ip), vehicle: saline 96 % of control | [18] 98 % of control | dose: 200.0 mg/kg/injection, schedule: Q01DX001 (ip), vehicle: other 107 % of control | dose: 200.0 mg/kg/injection, schedule: Q01DX001 (ip), vehicle: saline 97 % of control and 104 % of control | dose: 200.0 mg/kg/injection, schedule: Q01DX009 (ip), vehicle: other 102 % of control | [6] 98 % of control | [22] 97 % of control | dose: 200.0 mg/kg/injection, schedule: Q04DX003 (ip), vehicle: other 102 % of control | [19] 106 % of control and 108 % of control | dose: 400.0 mg/kg/injection, schedule: Q01DX001 (ip), vehicle: other 107 % of control | dose: 400.0 mg/kg/injection, schedule: Q01DX001 (ip), vehicle: saline 98 % of control | dose: 400.0 mg/kg/injection, schedule: Q01DX009 (ip), vehicle: other 94 % of control | [10] 96 % of control | dose: 400.0 mg/kg/injection, schedule: Q01DX009 (ip), vehicle: saline 103 % of control | dose: 400.0 mg/kg/injection, schedule: Q04DX003 (ip), vehicle: other 96 % of control | [20] 106 % of control and 102 % of control | dose: 800.0 mg/kg/injection, schedule: Q01DX001 (ip), vehicle: other 105 % of control | dose: 800.0 mg/kg/injection, schedule: Q01DX001 (ip), vehicle: saline 106 % of control | dose: 800.0 mg/kg/injection, schedule: Q01DX009 (ip), vehicle: other 100 % of control | dose: 800.0 mg/kg/injection, schedule: Q01DX009 (ip), vehicle: saline with Tween-80 101 % of control | dose: 800.0 mg/kg/injection, schedule: Q01DX009 (ip), vehicle: saline 100 % of control | dose: 800.0 mg/kg/injection, schedule: Q04DX003 (ip), vehicle: other 103 % of control | dose: 800.0 mg/kg/injection, schedule: Q04DX003 (ip), vehicle: saline 101 % of control | dose: 1600.0 mg/kg/injection, schedule: Q01DX001 (ip), vehicle: other 112 % of control | dose: 1600.0 mg/kg/injection, schedule: Q01DX001 (ip), vehicle: saline 101 % of control | dose: 1600.0 mg/kg/injection, schedule: Q01DX009 (ip), vehicle: other 103 % of control | dose: 1600.0 mg/kg/injection, schedule: Q01DX009 (ip), vehicle: saline with Tween-80 98 % of control | dose: 1600.0 mg/kg/injection, schedule: Q01DX009 (ip), vehicle: saline 99 % of control | dose: 1600.0 mg/kg/injection, schedule: Q04DX003 (ip), vehicle: other 96 % of control | dose: 1600.0 mg/kg/injection, schedule: Q04DX003 (ip), vehicle: saline 100 % of control

CC1(C)CN=C(SC(=O)c2ccc([N+](=O)[O-])cc2)S1
inactive: dose: 100.0 mg/kg/injection, schedule: Q04DX002 (ip), vehicle: gum acacia 100 % of control | dose: 200.0 mg/kg/injection, schedule: Q04DX002 (ip), vehicle: gum acacia 93 % of control | dose: 400.0 mg/kg/injection, schedule: Q04DX002 (ip), vehicle: gum acacia 93 % of control

O=C(Nc1ccccc1C(=O)N/N=C/c1ccccc1Cl)c1ccccc1Cl
inactive: [1] 90 % of control | [5] 103 % of control | [9] 86 % of control
